21 compounds from US20210139484A1, “DIHYDROISOQUINOLINE-2(1H)-CARBOXAMIDE AND RELATED COMPOUNDS AND THEIR USE IN TREATING MEDICAL CONDITIONS” (GOSSAMER BIO SERVICES, INC., priority 2018, published 2021) can be followed below.

Molecules are shown by their SMILES.

The target in one experiment is T1, human HPK1 protein (Homo sapiens, UniProt Q92918).
T1 construct: recombinant human HPK1 protein (a.a. 1-346) was expressed in Sf9 insect cells; GST (N); purchased Signalchem M23-11G; host or cells: Sf9 insect cells (baculovirus)
T1 sequence (Q92918 1-346): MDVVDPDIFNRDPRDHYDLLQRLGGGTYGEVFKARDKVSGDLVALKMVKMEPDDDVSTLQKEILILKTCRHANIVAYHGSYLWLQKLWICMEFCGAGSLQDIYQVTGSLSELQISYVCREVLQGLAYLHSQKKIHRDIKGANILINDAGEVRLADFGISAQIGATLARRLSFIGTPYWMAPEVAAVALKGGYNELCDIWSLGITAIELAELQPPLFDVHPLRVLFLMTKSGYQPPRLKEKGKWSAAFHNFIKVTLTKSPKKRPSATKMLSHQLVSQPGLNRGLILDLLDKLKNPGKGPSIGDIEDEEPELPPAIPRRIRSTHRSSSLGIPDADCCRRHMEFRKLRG
In words: Human HPK1 protein TR-FRET assay. The following applies: 1 mM ATP, Table 19. In kind it is biochemical. In short, it runs like this:
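Read-out was TR-FRET using Eu-labeled anti-phospho-CREB (Ser133) antibody, with the 665/615 nm signal ratio normalised to DMSO-only wells and fitted by a 4-parameter logistic model for IC50. Reactions held 10 nM Sf9-expressed GST-HPK1 (a.a. 1-346), 100 nM CREBtide and 1 mM ATP, run 60 minutes at room temperature, pH 7.5.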
In general terms: Time-resolved FRET reads energy transfer from a long-lived donor to a nearby acceptor.
Consider `C[C@H]1c2cc(Oc3ccnc4[nH]ccc34)ccc2CCN1C(=O)Nc1ccc(OC2CCN(C)CC2)c(C(F)F)c1` [V-15], for which the IC50 fell in the range of 0.5 to 5 µM.
As for `CCN1CCN(Cc2ccc(NC(=O)N3CCc4ccc(Oc5ncnc6[nH]c(C)cc56)cc4[C@@H]3C)cc2C(F)(F)F)CC1` [V-28], the IC50 is < 0.5 µM.
Still for that read-out and setting: under `Cc1cc2c(Oc3cnc4c(c3)CN(C(=O)Nc3cnc(OC5CCN(C)CC5)c(C(F)(F)F)c3)CC4C)ncnc2[nH]1` (stereo not drawn) [VII-12] stands < 0.5 µM.
The same measure, in the same setting: under `Cc1cc2c(Oc3ccc4c(c3)[C@H](C)N(C(=O)Nc3cnc(Oc5ccncc5)c(C(F)(F)F)c3)CC4)ccnc2[nH]1` [VI-14] stands 5 to 10 µM; under `C[C@H]1c2cc(Oc3ccnc4[nH]ccc34)ccc2CCN1C(=O)Nc1cnc(OC2CCN(C)CC2)c(C(F)(F)F)c1` [compound 7, (S)-7-((1H-pyrrolo[2,3-b]pyridin-4-yl)oxy)-1-methyl-N-(6-((1-methylpiperidin-4-yl)oxy)-5-(trifluoromethyl)pyridin-3-yl)-3,4-dihydroisoquinoline-2(1H)-carboxamide], < 0.5 µM.
On the same count and under the same terms, then `CCN1CCN(Cc2ccc(NC(=O)N3CCc4cc(F)c(Oc5ccnn6cccc56)cc4C3C)cc2C(F)(F)F)CC1` (stereo not drawn) [IV-30], with 0.5 to 5 µM.
Turning to `CCN1CCN(Cc2ccc(NC(=O)N3CCc4ccc(Oc5ccnc6[nH]c(=O)ccc56)cc4C3)cc2C(F)(F)F)CC1` [II-12], the IC50 is < 0.5 µM.
For `CCC1CN(C(=O)Nc2ccc(CN3CCN(CC)CC3)c(C(F)(F)F)c2)Cc2cc(Oc3ccnc4[nH]c(C)cc34)cnc21` (single isomer, unassigned) [VII-22], the half-inhibitory concentration (IC50) was < 0.5 µM.
On the same count and under the same terms, under `Cc1cc2c(Oc3ccc4c(c3)[C@H](C)N(C(=O)Nc3cnc(OC5CCN(CCO)CC5)c(C(F)(F)F)c3)CC4)ccnc2[nH]1` [VI-18] stands < 0.5 µM; under `Cc1cc2c(Oc3ccc4c(c3)[C@H](C)N(C(=O)Nc3cnc(OC5CCN(C)CC5F)c(C(F)(F)F)c3)CC4)ccnc2[nH]1` (stereo in doubt) [VI-10], 0.5 to 5 µM.

The same experiment, now with this note: 1 mM ATP, Table 20.
`CCN1CCN(Cc2ccc(NC(=O)N3Cc4cc(Oc5ccnc(NCCO)c5)cnc4C(C)C3)cc2C(F)(F)F)CC1` (single isomer, unassigned) [XIV-16] registered an IC50 of 0.5 to 5 µM.
On the same count and under the same terms, then `C[C@@H]1Cc2ccc(Oc3ccnc4[nH]c(C(=O)N(C)C)cc34)cc2CN1C(=O)Nc1cnc(O[C@@H]2CCN(C)C[C@@H]2O)c(C(F)(F)F)c1` [XVI-6], with < 0.5 µM.
Still for that read-out and setting: then `CCN1CCN(Cc2ccc(NC(=O)N3Cc4cc(Oc5ccnc6[nH]c(C)nc56)cnc4C(C)C3)cc2C(F)(F)F)CC1` (single isomer, unassigned) [XIV-27], with 5 to 10 µM; and `CC[C@@H]1CN(C(=O)Nc2ccc(CN3CCN(C)CC3)c(C(F)(F)F)c2)Cc2cc(Oc3ccnc4[nH]c(C5(O)COC5)cc34)ccc21` [XV-12], with < 0.5 µM.
On the same count and under the same terms, then `CC[C@H]1CN(C(=O)Nc2ccc(CN3CCN(C)CC3)c(C(F)(F)F)c2)Cc2cc(Oc3ccnc4[nH]c(-c5cn[nH]c5)cc34)cnc21` [XIV-149], with < 0.5 µM.
As for `CC[C@H]1CN(C(=O)Nc2ccc(CN3CCN(CC(F)F)CC3)c(C(F)(F)F)c2)Cc2cc(Oc3ccnc4[nH]c(C(=O)N(C)C)cc34)cnc21` [XIV-139], the IC50 lay in the range of 0.5 to 5 µM.
Regarding `C[C@H]1c2cc(Oc3ccnc4[nH]c(C5(O)COC5)cc34)ccc2CCN1C(=O)Nc1ccc(CN2CCN(CCO)CC2)c(C(F)(F)F)c1` [XIII-6], the half-maximal inhibitory concentration (IC50) is < 0.5 µM.
With `CCN1CCN(Cc2ccc(NC(=O)N3CCc4ccc(Oc5ccnc6[nH]c(CO)cc56)cc4[C@@H]3C)cc2C(F)(F)F)CC1` [XIII-2], the IC50 was < 0.5 µM.
The same measure, in the same setting: under `CC[C@@H]1CN(C(=O)Nc2ccc(CN3CCN(CCO)CC3)c(C(F)F)c2)Cc2cc(Oc3ccnc4[nH]c(CO)cc34)ccc21` [XV-7] stands < 0.5 µM.
Still for that read-out and setting: under `C=C(C)c1cc2c(Oc3cnc4c(c3)CN(C(=O)Nc3ccc(CN5CCN(C)CC5)c(C(F)(F)F)c3)C[C@@H]4CC)ccnc2[nH]1` [XIV-152] stands < 0.5 µM; under `CCN1CCN(Cc2ccc(NC(=O)N3Cc4cc(Oc5ccnc6ncc(=O)[nH]c56)cnc4C(C)C3)cc2C(F)(F)F)CC1` (single isomer, unassigned) [XIV-8], 0.5 to 5 µM.

One may read the IC50 as the concentration at which inhibition is half-maximal. Higher therefore signals a need for much substance.
